Reference: US8461186B2, “Use of N-piperidine derivatives for the treatment of neurodegenerative pathologies” (Medestea Research & Production S.p.A., priority 2004, dated 2013)

Tested on: myocardial ischaemia and reperfusion (I/R) in the rat
Assay: Myocardial lesion due to ischaemia and reperfusion (LAD occlusion): size of the infarct
Format: in vivo
Conditions: 10 mg/kg bolus 5 minutes prior to reperfusion, then 2 mg/kg/h; LAD occlusion 25 minutes, reperfusion 2 hours; p<0.01 (FIG. 1)
Protocol: The in vivo model of myocardial lesion due to ischaemia and reperfusion was selected as the most suitable for checking the efficacy of the compounds MP1002 and MP1001 according to the invention.
Male Sprague Dawley rats (220-230 g) were kept on a standard laboratory diet supplemented with “Nossan Pellets” (Nossan Company, Milan, Italy) and were housed for three weeks prior to the tests (relative humidity 50%±10, temperature 22° C.±1 and light/darkness cycle of 12/12 hours with first light at 7.30 a.m.); food and water were available ad libitum.
The rats (twenty per group) were anaesthetized by intraperitoneal injection of chloral hydrate (380 mg/kg) and were then tracheotomized, intubated and ventilated with ambient air by a suitable ventilator; body temperature was kept at 38° C.±1 and the right carotid artery was cannulated and connected to a pressure transducer to monitor the mean arterial blood pressure (MAP). […]
The coronary artery was occluded by tightening the occluder, a procedure which is correlated with the electrocardiographic and haemodynamic changes (drop in MAP) which are typical of myocardial ischaemia. […] The heart rate (HR) and MAP were monitored continuously. […]

Row | Compound | reduction in the size of the infarct compared with the control
1 | CC1(C)CC(OC(=O)CCCCCCCCC(=O)OC2CC(C)(C)N(O)C(C)(C)C2)CC(C)(C)N1O [MP1001, BIS(1-HYDROXYL-2,2,6,6-TETRAMETHYL-4-PIPERIDINYL)DECANDIOATE] | 78%
2 | CC1(C)CC(OC(=O)CCCCCCCCC(=O)OC2CC(C)(C)N(O)C(C)(C)C2)CC(C)(C)N1O [MP1002, bis(1-oxyl-2,2,6,6-tetramethyl-4-piperidinyl)decandioate] | 80%
